Patent US20060018921A1, “Histone deacetylase inhibitors and cognitive applications” (priority 2004, published 2006)
“Also recorded” adds a separate entry of the source. Starred links: 1 amine or outer side, 2 acyl side, 3 side chain; linkers in the order of their positions; H or OH if unused. Positions of bridges follow the written chain, without caps; N, C: chain ends. Non-standard residues stand in square brackets, D forms with d. Residues, ends and D or L forms follow the SMILES beside them. Chains are numbered I, II in the order given. Actinocin(9to1) = Cc1c2oc3c(C)ccc(C(=O)[*:1])c3nc-2c(C(=O)[*:2])c(N)c1=O; NMeV = CN[C@H](C(=O)O)C(C)C; Sar = CNCC(=O)O

Key:
ERK2 = assay: P-ERK2 western blot, acute hippocampal slices, area CA1; conditions: for levels of P-ERK2: slices treated 1 h, FSK 50 μM with 100 μM Ro20-1724, U0126 20 μM, 4αP 3 μM, dFSK 50 μM with 100 μM Ro20-1724, TSA; for levels of P-ERK2 / effect of PDA on P-ERK2 after pretreatment with MEK inhibitor: PDA 3 μM; for levels of P-ERK2 / effect of NMDA on P-ERK2 after pretreatment with MEK inhibitor / effect of FSK on P-ERK2 after pretreatment with MEK inhibitor / effect of PDA on P-ERK2 after pretreatment with MEK inhibitor: PD98059 50 μM; for effect of NMDA on P-ERK2 after pretreatment with MEK inhibitor / effect of FSK on P-ERK2 after pretreatment with MEK inhibitor / effect of PDA on P-ERK2 after pretreatment with MEK inhibitor: U0126 20 μM; for effect of NMDA on P-ERK2 after pretreatment with MEK inhibitor: 100 μM NMDA 10 min; for effect of FSK on P-ERK2 after pretreatment with MEK inhibitor: FSK 50 μM with 100 μM Ro20-1724
histone H3 (Lys14) = assay: Acetylation of histone H3, acute hippocampal slices, area CA1; conditions: for histone H3 acetylation: slices treated 1 h, FSK 50 μM with 100 μM Ro20-1724, 4αP 3 μM, dFSK 50 μM with 100 μM Ro20-1724, U0126 20 μM, TSA 1.65 μM; for histone H3 acetylation / effect of PDA on histone H3 acetylation after pretreatment with MEK inhibitor: PDA 3 μM; for histone H3 acetylation / effect of NMDA on acetylation of histone H3 after pretreatment with MEK inhibitor / effect of FSK on histone H3 acetylation after pretreatment with MEK inhibitor / effect of PDA on histone H3 acetylation after pretreatment with MEK inhibitor: PD98059 50 μM; for effect of NMDA on acetylation of histone H3 after pretreatment with MEK inhibitor / effect of FSK on histone H3 acetylation after pretreatment with MEK inhibitor / effect of PDA on histone H3 acetylation after pretreatment with MEK inhibitor: U0126 20 μM; for effect of NMDA on acetylation of histone H3 after pretreatment with MEK inhibitor: 100 μM NMDA 10 min; for effect of FSK on histone H3 acetylation after pretreatment with MEK inhibitor: FSK 50 μM with 100 μM Ro20-1724
ERK1 = assay: P-ERK1 western blot, acute hippocampal slices, area CA1; conditions: slices treated 1 h; data not shown
[1] = system: Schaffer-collateral synapses; conditions: previous studies, Nguyen et al., 1994; cited from earlier work
[2] = system: histone H4 (Lys5/Lys8/Lys12/Lys16); assay: Acetylation of histone H4, acute hippocampal slices, area CA1; conditions: 100 μM NMDA 10 min, with or without U0126 or PD98059 pretreatment
[3] = 100 μM NMDA in Mg++-free ACSF for 10 min

With CCCCCCCCCC(=O)O[C@@H]1[C@@H](C)[C@@]2(O)[C@@H](C=C(CO)C[C@@]3(O)C(=O)C(C)=C[C@@H]23)[C@@H]2C(C)(C)[C@]12OC(=O)CCCCCCCCC [4αP, 4-α-phorbol 12,13-didecanoate] the “levels of P-ERK2” value (ERK2) was “no effect on P-ERK2”, the “levels of P-ERK2” value (ERK2; listed as 4 αP) was “no affect” and the “histone H3 acetylation” value (histone H3 (Lys14)) was “no effect on H3 acetylation”. The “histone H3 acetylation” value (histone H3 (Lys14); listed as 4 αP) was “no affect on the acetylation of histone H3” and the “levels of P-ERK1” value (ERK1) was “no affect”.
In the case of OC[C@H]1O[C@@H](n2cnc3cc(Cl)c(Cl)cc32)[C@H](O)[C@@H]1O [DRB, 5,6-dichlorobenzimidazole riboside], the basal synaptic transmission [1] is listed as “no effect on basal synaptic transmission”.
In the case of CN[C@H](CC(=O)O)C(=O)O [NMDA], the “acetylation of histone H4 in area CA1” value [2] is reported as “no affect on acetylation of histone H4”, the “phosphorylation of ERK2 in area CA1” value (ERK2; [3]) is reported as “induced significant increases in P-ERK2; also recorded: significantly increased” and the “acetylation of histone H3 in area CA1” value (histone H3 (Lys14); [3]) is reported as “increased acetylation of histone H3; also recorded: significantly increased”.
For COc1cccc(-c2cc(=O)c3ccccc3o2)c1N [PD98059], the “effect of NMDA on P-ERK2 after pretreatment with MEK inhibitor” value (ERK2) was “blocked; also recorded: inhibited the affect of NMDA on P-ERK2”, the “effect of FSK on P-ERK2 after pretreatment with MEK inhibitor” value (ERK2) was “blocked” and the “effect of PDA on P-ERK2 after pretreatment with MEK inhibitor” value (ERK2) was “blocked”. The “levels of P-ERK2” value (ERK2) was “diminished”, the “effect of NMDA on acetylation of histone H3 after pretreatment with MEK inhibitor” value (histone H3 (Lys14)) was “blocked; also recorded: inhibited the affect of NMDA on acetylation of histone H3” and the “effect of FSK on histone H3 acetylation after pretreatment with MEK inhibitor” value (histone H3 (Lys14)) was “blocked; also recorded: inhibited”. The “effect of PDA on histone H3 acetylation after pretreatment with MEK inhibitor” value (histone H3 (Lys14)) was “blocked; also recorded: inhibited” and the “histone H3 acetylation” value (histone H3 (Lys14)) was “no effect on basal levels of acetylation of histone H3”.
In the case of CC(=O)O[C@@H]1[C@@H](C)[C@@]2(O)[C@@H](C=C(CO)C[C@]3(O)C(=O)C(C)=C[C@@H]23)[C@@H]2C(C)(C)[C@]12OC(C)=O [PDA, phorbol 12,13-diacetate], the “levels of P-ERK2” value (ERK2) is reported as “significantly increased; also recorded: significant increases in levels of P-ERK2”, the “histone H3 acetylation” value (histone H3 (Lys14)) is reported as “significantly increased acetylation of histone H3” and the “levels of P-ERK1” value (ERK1) is reported as “significantly increased”.
In the case of N#CC(=C(/N)Sc1ccccc1N)/C(C#N)=C(\N)Sc1ccccc1N [U0126], the “effect of NMDA on P-ERK2 after pretreatment with MEK inhibitor” value (ERK2) is reported as “blocked; also recorded: inhibited the affect of NMDA on P-ERK2”, the “effect of FSK on P-ERK2 after pretreatment with MEK inhibitor” value (ERK2) is reported as “blocked” and the “effect of PDA on P-ERK2 after pretreatment with MEK inhibitor” value (ERK2) is reported as “blocked”. For the same compound, the “levels of P-ERK2” value (ERK2) was “diminished”, the “effect of NMDA on acetylation of histone H3 after pretreatment with MEK inhibitor” value (histone H3 (Lys14)) was “blocked; also recorded: inhibited the affect of NMDA on acetylation of histone H3” and the “effect of FSK on histone H3 acetylation after pretreatment with MEK inhibitor” value (histone H3 (Lys14)) was “blocked; also recorded: inhibited”. For the same compound, the “effect of PDA on histone H3 acetylation after pretreatment with MEK inhibitor” value (histone H3 (Lys14)) was “blocked; also recorded: inhibited” and the “histone H3 acetylation” value (histone H3 (Lys14)) was “no effect on basal levels of acetylation of histone H3”.
In the case of Cc1c2oc3c(C)ccc(C(=O)N[C@@H]4C(=O)N[C@H](C(C)C)C(=O)N5CCC[C@H]5C(=O)N(C)CC(=O)N(C)[C@@H](C(C)C)C(=O)O[C@@H]4C)c3nc-2c(C(=O)N[C@@H]2C(=O)N[C@H](C(C)C)C(=O)N3CCC[C@H]3C(=O)N(C)CC(=O)N(C)[C@@H](C(C)C)C(=O)O[C@@H]2C)c(N)c1=O [actinomycin D, Actinomycin D] (I: T[dV]P[Sar][NMeV] / II: T[dV]P[Sar][NMeV]; ester I:1-I:C, II:1-II:C; linker I:N-II:N via Actinocin(9to1)), the basal synaptic transmission [1] is listed as “no effect on synaptic transmission”.
In the case of C=C[C@@]1(C)CC(=O)[C@@H]2[C@@]3(C)CCCC(C)(C)[C@@H]3[C@H](O)[C@H](OC(C)=O)[C@@]2(C)O1 [dFSK, 1,9 dideoxyforskolin], the “levels of P-ERK2” value (ERK2) is reported as “no affect; also recorded: no effect on P-ERK2”, the “histone H3 acetylation” value (histone H3 (Lys14)) is reported as “no affect on the acetylation of histone H3; also recorded: no effect on H3 acetylation” and the “levels of P-ERK1” value (ERK1) is reported as “no affect”.
